Experimental data reported in the NIST ThermoML archive (doi:10.1021/je900387e).
± gives the expanded uncertainty stated by the source.

Assay: xn = mol fraction of the nth substance listed
Settings: Liquid, Pycnometric method

CCCCCl [1-chlorobutane] + O=C=O
Settings | mass density [kg/m3]
324 K, 13450 kPa, x1 = 0.0483 | 758 ± 4
324 K, 13950 kPa, x1 = 0.0483 | 768 ± 4
324 K, 14450 kPa, x1 = 0.0483 | 778 ± 4
324 K, 15020 kPa, x1 = 0.0483 | 788 ± 4
327.6 K, 8120 kPa, x1 = 0.0243 | 244 ± 4
327.6 K, 8180 kPa, x1 = 0.0243 | 249 ± 4
327.6 K, 8250 kPa, x1 = 0.0243 | 253 ± 4
327.6 K, 8320 kPa, x1 = 0.0243 | 258 ± 4
327.6 K, 8390 kPa, x1 = 0.0243 | 263 ± 4
327.6 K, 8460 kPa, x1 = 0.0243 | 268 ± 4
327.6 K, 8480 kPa, x1 = 0.1488 | 758 ± 4
327.6 K, 8520 kPa, x1 = 0.0243 | 274 ± 4
327.6 K, 8590 kPa, x1 = 0.0243 | 279 ± 4
327.6 K, 8670 kPa, x1 = 0.0243 | 285 ± 4
327.6 K, 8710 kPa, x1 = 0.1488 | 762 ± 4
327.6 K, 8750 kPa, x1 = 0.0243 | 291 ± 4
327.6 K, 8820 kPa, x1 = 0.0243 | 298 ± 4
327.6 K, 8880 kPa, x1 = 0.0243 | 304 ± 4
327.6 K, 8920 kPa, x1 = 0.0981 | 692 ± 4
327.6 K, 8920 kPa, x1 = 0.1488 | 766 ± 4
327.6 K, 8950 kPa, x1 = 0.0243 | 311 ± 4
327.6 K, 9040 kPa, x1 = 0.0243 | 318 ± 4
327.6 K, 9050 kPa, x1 = 0.0981 | 698 ± 4
327.6 K, 9110 kPa, x1 = 0.0243 | 326 ± 4
327.6 K, 9140 kPa, x1 = 0.1488 | 770 ± 4
327.6 K, 9180 kPa, x1 = 0.0243 | 334 ± 4
327.6 K, 9200 kPa, x1 = 0.0981 | 704 ± 4
327.6 K, 9270 kPa, x1 = 0.0243 | 343 ± 4
327.6 K, 9350 kPa, x1 = 0.0243 | 352 ± 4
327.6 K, 9360 kPa, x1 = 0.0981 | 711 ± 4
327.6 K, 9370 kPa, x1 = 0.1488 | 774 ± 4
327.6 K, 9410 kPa, x1 = 0.0243 | 359 ± 4
327.6 K, 9410 kPa, x1 = 0.0483 | 469 ± 4
327.6 K, 9430 kPa, x1 = 0.0483 | 473 ± 4
327.6 K, 9460 kPa, x1 = 0.0243 | 364 ± 4
327.6 K, 9470 kPa, x1 = 0.0483 | 480 ± 4
327.6 K, 9520 kPa, x1 = 0.0483 | 487 ± 4
327.6 K, 9530 kPa, x1 = 0.0981 | 718 ± 4
327.6 K, 9570 kPa, x1 = 0.0483 | 494 ± 4
327.6 K, 9600 kPa, x1 = 0.1488 | 778 ± 4
327.6 K, 9620 kPa, x1 = 0.0483 | 502 ± 4
327.6 K, 9670 kPa, x1 = 0.0483 | 510 ± 4
327.6 K, 9730 kPa, x1 = 0.0483 | 518 ± 4
327.6 K, 9730 kPa, x1 = 0.0981 | 725 ± 4
327.6 K, 9790 kPa, x1 = 0.0483 | 526 ± 4
327.6 K, 9850 kPa, x1 = 0.1488 | 781 ± 4
327.6 K, 9860 kPa, x1 = 0.0483 | 535 ± 4
327.6 K, 9930 kPa, x1 = 0.0483 | 544 ± 4
327.6 K, 9940 kPa, x1 = 0.0981 | 731 ± 4
327.6 K, 10010 kPa, x1 = 0.0483 | 553 ± 4
327.6 K, 10090 kPa, x1 = 0.0483 | 562 ± 4
327.6 K, 10110 kPa, x1 = 0.1488 | 785 ± 4
327.6 K, 10190 kPa, x1 = 0.0483 | 572 ± 4
327.6 K, 10200 kPa, x1 = 0.0981 | 739 ± 4
327.6 K, 10290 kPa, x1 = 0.0483 | 582 ± 4
327.6 K, 10410 kPa, x1 = 0.0483 | 593 ± 4
327.6 K, 10410 kPa, x1 = 0.1488 | 790 ± 4
327.6 K, 10450 kPa, x1 = 0.0981 | 746 ± 4
327.6 K, 10540 kPa, x1 = 0.0483 | 604 ± 4
327.6 K, 10690 kPa, x1 = 0.0483 | 615 ± 4
327.6 K, 10720 kPa, x1 = 0.1488 | 794 ± 4
327.6 K, 10770 kPa, x1 = 0.0981 | 754 ± 4
327.6 K, 10810 kPa, x1 = 0.0483 | 623 ± 4
327.6 K, 10910 kPa, x1 = 0.0483 | 629 ± 4
327.6 K, 11000 kPa, x1 = 0.0483 | 635 ± 4
327.6 K, 11050 kPa, x1 = 0.1488 | 798 ± 4
327.6 K, 11060 kPa, x1 = 0.0483 | 639 ± 4
327.6 K, 11110 kPa, x1 = 0.0981 | 761 ± 4
327.6 K, 11140 kPa, x1 = 0.0483 | 644 ± 4
327.6 K, 11220 kPa, x1 = 0.0483 | 648 ± 4
327.6 K, 11380 kPa, x1 = 0.1488 | 802 ± 4
327.6 K, 11460 kPa, x1 = 0.0981 | 769 ± 4
327.6 K, 11770 kPa, x1 = 0.1488 | 806 ± 4
327.6 K, 11880 kPa, x1 = 0.0981 | 777 ± 4
327.6 K, 12150 kPa, x1 = 0.1488 | 811 ± 4
327.6 K, 12330 kPa, x1 = 0.0981 | 785 ± 4
327.6 K, 12530 kPa, x1 = 0.1488 | 815 ± 4
327.6 K, 12830 kPa, x1 = 0.0981 | 792 ± 4
327.6 K, 12950 kPa, x1 = 0.1488 | 819 ± 4
327.6 K, 13400 kPa, x1 = 0.1488 | 823 ± 4
327.6 K, 13410 kPa, x1 = 0.0981 | 802 ± 4
327.6 K, 13890 kPa, x1 = 0.1488 | 828 ± 4
327.6 K, 14220 kPa, x1 = 0.0981 | 813 ± 4
327.6 K, 14350 kPa, x1 = 0.1488 | 832 ± 4
327.6 K, 14900 kPa, x1 = 0.1488 | 837 ± 4
